Test results published in patent publication US11505548B2, “Heterocyclic compounds and their use for treatment of helminthic infections and diseases” (Celgene Corporation, priority 2019, dated 2022).

System: Onchocerca gutturosa Adult Male Worms
Experiment: Onchocerciasis in vitro screening model, worm motility score
Format: cell-based
Conditions: in vitro; Onchocerca gutturosa adult male worms; class A/B/C; read-out: O. gutturosa activity level (IC50 or MED)

Row | IC50 [nM] | Compound
1 | 500 to 5000 | CC(=O)N(C)c1cc(C(F)(F)F)cnc1Nc1n[nH]c(-c2cc3c(cn2)N(C(C)C)CC3)n1 [Compound 295, N-(2-(5-(1-isopropyl-2,3-dihydro-1H-pyrro1o[2,3-c]pyridin-5-yl)-1H-1,2,4-triazol-3-ylamino)-5-(trifluoromethyl)pyridin-3-yl)-N-methylacetamide]
2 | < 200 | CC(C)c1cnc(Nc2nc(-c3cc4c(cn3)OC(C)(C)C4)ns2)cc1C(F)(F)F [Compound 296, 3-(2,2-dimethyl-2,3-dihydrofuro[2,3-c]pyridin-5-yl)-N-(5-isopropyl-4-(trifluoromethyl)pyridin-2-yl)-1,2,4-thiadiazol-5-amine]
3 | 200 to 500 | CC(=O)N(C)c1cnc(Nc2nc(-c3ccc(OC(C)C)cn3)ns2)c(C)c1 [Compound 297, N-(6-(3-(5-isopropoxypyridin-2-yl)-1,2,4-thiadiazol-5-ylamino)-5-methylpyridin-3-yl)-N-methylacetamide]
4 | 200 to 500 | CC(C)Oc1ccc(-c2nsc(Nc3ncccc3S(=O)(=O)N3CCC3)n2)nc1 [Compound 298, N-(3-(azetidin-1-ylsulfonyl)pyridin-2-yl)-3-(5-isopropoxypyridin-2-yl)-1,2,4-thiadiazol-5-amine]
5 | < 200 | CC(=O)N(C)c1cnc(Nc2nc(-c3cc4c(cn3)N(C(C)C)CC4)ns2)c(C(F)(F)F)c1 [Compound 299, N-(6-(3-(1-isopropyl-2,3-dihydro-1H-pyrrolo[2,3-c]pyridin-5-yl)-1,2,4-thiadiazol-5-ylamino)-5-(trifluoromethyl)pyridin-3-yl)-N-methylacetamide]
6 | 500 to 5000 | CC(=O)N(C)c1cnc(Nc2nc(-c3ccc(OC(C)C)cn3)ns2)c(C(F)(F)F)c1 [Compound 300, N-(6-(3-(5-isopropoxypyridin-2-yl)-1,2,4-thiadiazol-5-ylamino)-5-(trifluoromethyl)pyridin-3-yl)-N-methylacetamide]
7 | < 200 | CC(=O)N(C)c1cc(C(F)(F)F)cnc1Nc1nc(-c2cc(C(C)C)ccn2)ns1 [Compound 301, N-(2-(3-(4-isopropylpyridin-2-yl)-1,2,4-thiadiazol-5-ylamino)-5-(trifluoromethyl)pyridin-3-yl)-N-methylacetamide]
8 | < 200 | CC(=O)N(C)c1nccnc1Nc1nc(-c2cc3ccn(C(C)C)c3cn2)ns1 [Compound 302, N-(3-(3-(1-isopropyl-1H-pyrrolo[2,3-c]pyridin-5-yl)-1,2,4-thiadiazol-5-ylamino)pyrazin-2-yl)-N-methylacetamide]
9 | < 200 | CNc1nccnc1Nc1nc(-c2cc3ccn(C(C)C)c3cn2)ns1 [Compound 303, N2-(3-(1-isopropyl-1H-pyrrolo[2,3-c]pyridin-5-yl)-1,2,4-thiadiazol-5-yl)-N3-methylpyrazine-2,3-diamine]
10 | < 200 | CC(=O)N(C)c1cc(C(F)(F)F)cnc1Nc1nc(-c2cc3c(cn2)CCN3C(C)C)ns1 [Compound 304, N-(2-(3-(1-isopropyl-2,3-dihydro-1H-pyrrolo[3,2-c]pyridin-6-yl)-1,2,4-thiadiazol-5-ylamino)-5-(trifluoromethyl)pyridin-3-yl)-N-methylacetamide]
11 | < 200 | Cc1ccnc(Nc2nsc(-c3ncccc3C)n2)c1 [Compound 305, 5-(3-methyl-pyridin-2-yl)-N-(4-methylpyridin-2-yl)-1,2,4-thiadiazol-3-amine]
12 | < 200 | CC(=O)N(C)c1cc(C(F)(F)F)cnc1Nc1nc(-c2cc(OC3CCOCC3)ccn2)ns1 [Compound 306, N-methyl-N-(2-(3-(4-(tetrahydro-2H-pyran-4-yloxy)pyridin-2-yl)-1,2,4-thiadiazol-5-ylamino)-5-(trifluoromethyl)pyridin-3-yl)acetamide]
13 | 500 to 5000 | CN1CCc2cc(-c3nsc(Nc4ncccc4S(=O)(=O)N(C)C)n3)ncc21 [Compound 307, N,N-dimethyl-2-(3-(1-methyl-2,3-dihydro-1H-pyrrolo[2,3-c]pyridin-5-yl)-1,2,4-thiadiazol-5-ylamino) pyridine-3-sulfonamide]
14 | < 200 | CC(C)Oc1ccnc(-c2nsc(Nc3ncccc3S(=O)(=O)N(C)C)n2)c1 [Compound 308, 2-(3-(4-isoprop-oxypyridin-2-yl)-1,2,4-thiadiazol-5-ylamino)-N,N-dimethyl-pyridine-3-sulfonamide]
15 | < 200 | CC(=O)N(C)c1nccnc1Nc1nc(-c2cc3c(cn2)N(C(C)C)CC3)ns1 [Compound 309, N-(3-(3-(1-isopropyl-2,3-dihydro-1H-pyrrolo[2,3-c]pyridin-5-yl)-1,2,4-thiadiazol-5-ylamino)pyrazin-2-yl)-N-methylacetamide]
16 | 500 to 5000 | CC(=O)N(C)c1cccnc1Nc1nc(-c2cc3c(cn2)CN(C(C)C)C3)ns1 [Compound 310, N-(2-(3-(2-isopropyl-2,3-dihydro-1H-pyrrolo[3,4-c]pyridin-6-yl)-1,2,4-thiadiazol-5-ylamino)pyridin-3-yl)-N-methylacetamide]
17 | < 200 | CC(=O)N(C)c1cc(C(F)(F)F)cnc1Nc1nc(-c2cc3c(cn2)CN(C(C)C)C3)ns1 [Compound 311, N-(2-(3-(2-isopropyl-2,3-dihydro-1H-pyrrolo[3,4-c]pyridin-6-yl)-1,2,4-thiadiazol-5-ylamino)-5-(trifluoromethyl)pyridin-3-yl)-N-methylacetamide]
18 | 500 to 5000 | CC(C)Oc1ccc(-c2nsc(Nc3ncc(C(F)(F)F)cc3N3CCCC3=O)n2)nc1 [Compound 312, 1-(2-(3-(5-isopropoxypyridin-2-yl)-1,2,4-thiadiazol-5-ylamino)-5-(trifluoromethyl)pyridin-3-yl)pyrrolidin-2-one]
19 | 500 to 5000 | CC(=O)N(C)c1nccnc1Nc1nc(-c2ccc(OC(C)C)cn2)ns1 [Compound 313, N-(3-(3-(5-isopropoxypyridin-2-yl)-1,2,4-thiadiazol-5-ylamino)pyrazin-2-yl)-N-methylacetamide]
20 | 500 to 5000 | CC(=O)N(C)c1cc(C(F)(F)F)cnc1Nc1nc(-c2ccc(OC(C)C)nn2)ns1 [Compound 314, N-(2-(3-(6-isopropoxy-pyridazin-3-yl)-1,2,4-thiadiazol-5-ylamino)-5-(trifluoromethyl)pyridin-3-yl)-N-methylacetamide]
21 | 500 to 5000 | Cc1cccnc1Nc1nc(-c2ncc(OC(C)C)cn2)ns1 [Compound 315, 3-(5-isopropoxy-pyrimidin-2-yl)-N-(3-methylpyridin-2-yl)-1,2,4-thiadiazol-5-amine]
22 | 500 to 5000 | CC(=O)N(C)c1cc(C(F)(F)F)cnc1Nc1nc(-c2ncc(OC(C)C)cn2)ns1 [Compound 316, N-(2-(3-(5-isopropoxy-pyrimidin-2-yl)-1,2,4-thiadiazol-5-ylamino)-5-(trifluoromethyl)pyridin-3-yl)-N-methylacetamide]
23 | < 200 | CC(=O)N(C)c1cc(C(F)(F)F)cnc1Nc1nc(-c2cc(OC(C)C)ccn2)ns1 [Compound 317, N-(2-(3-(4-isopropoxypyridin-2-yl)-1,2,4-thiadiazol-5-ylamino)-5-(trifluoromethyl)pyridin-3-yl)-N-methylacetamide]
24 | < 200 | COc1ccnc(-c2nsc(Nc3ncc(C(F)(F)F)cc3N(C)C(C)=O)n2)c1 [Compound 318, N-(2-(3-(4-methoxypyridin-2-yl)-1,2,4-thiadiazol-5-ylamino)-5-(trifluoromethyl)pyridin-3-yl)-N-methylacetamide]
